Source: US11597737B2, “Small molecule inhibitors selective for polo-like kinase proteins” (UNIVERSITY OF SOUTH CAROLINA, priority 2016, dated 2023)
Like-named read-outs stand apart in the source and are kept apart here.

How the values were obtained:
[1] = target: T1, PLK1 PBD (367-603) (Homo sapiens, UniProt P53350); assay: Fluorescence polarization assay, PLK1 PBD; type: binding; conditions: for PLK1 versus PLK3 specificity (in words): PBD binding
T1 construct: PLK1 PBD (367-603); purchased BPS Biosciences Inc. (San Diego, Calif.)
T1 sequence (P53350 367-603): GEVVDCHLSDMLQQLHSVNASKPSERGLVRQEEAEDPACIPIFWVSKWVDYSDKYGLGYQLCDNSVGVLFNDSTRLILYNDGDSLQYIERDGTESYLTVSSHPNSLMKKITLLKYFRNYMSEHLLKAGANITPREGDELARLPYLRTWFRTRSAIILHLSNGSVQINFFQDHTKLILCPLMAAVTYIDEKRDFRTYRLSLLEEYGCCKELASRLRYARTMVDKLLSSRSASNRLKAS
Protocol: (§1) Fluorescence Polarization Assay
(§2) Materials were dissolved in DMSO (10 mM) and diluted from 10 nM to 600 μM (maximum of 6% DMSO tolerance in the assay). […] Incubation was carried out at room temperature for 45 minutes. Fluorescence was measured using a DTX 880 plate reader and Multimode Analysis software (Beckman Coulter, Brea, Calif.). […] Each data point was performed in triplicate for every experiment, and experiments were performed at least three times. An IC50 value for each compound was calculated from linear regression analysis of the plots.

[2] = system: KRAS mutant lung cancer (A-549) cells; assay: Cell viability assay (MTT), A-549; type: cell-based
Protocol: (§3) A-549 lung cancer cells were maintained in Hams F-12 1× with glutamine (Corning® Cellgro, Manassas, Va.), and supplemented with 10% FBS or Corning® Nu-Serum™ (BD™ Biosciences, Franklin Lakes, N.J.) and 1% penicillin/streptomycin (Invitrogen™) in a humidified incubator and 5% C02 at 37° C.
(§4) Exponentially growing cells were plated in 96-well dishes. Dose response curves were used to treat cells for 72 hours with inhibitors. Following the three-day treatment, cell viability was measured using the MTT (3-(4,5-dimethylthiazol-2-yl)-2,5-diphenyltetrazolium bromide) colorimetric assay. Cells were incubated for 3 hours with MTT allowing viable cells to metabolize the tetrazolium dye to a purple colored solution. Absorbance measurements (595 nm) were quantified using a DTX 880 plate reader and IC50 values were generated for FLIPs.

[3] = system: HCT-116 (p53−/−) colon cancer cells; assay: Cell viability assay (MTT), HCT116 p53-/-; type: cell-based
Protocol: HCT-116 (p53+/+ and −/−) colon cancer cells were maintained DMEM (Invitrogen™, Carlsebad, Calif.) supplemented with 10% FBS or Nu-serum (BD™ Biosciences, Franklin Lakes, N.J.) and 1% penicillin/streptomycin (Invitrogen™) in a humidified incubator and 5% C02 at 37° C.
as §4

[4] = system: WT Retinal Pigment Epithelial (RPE) cells; assay: Cell viability assay, WT RPE cells; type: cell-based; conditions: FIG. 7, FIG. 8
Protocol: as §3, with “Retinal Pigment Epithelial (RPE)” for “A-549 lung cancer”, “1:1 DMEM/Hams” for “Hams”, “(Invitrogen™, Carlsebad, Calif.; Corning®” for “1× with glutamine (Corning®”
as §4, with “solution.” for “solution. Absorbance measurements (595 nm) were quantified using a DTX 880 plate reader and IC50 values were generated for FLIPs.”

[5] = system: mutant (C67V) PLK1 RPE cells; assay: Cell viability assay, PLK1 C67V mutant RPE cells; type: cell-based; conditions: FIG. 6-8
Protocol: as §3, with “Retinal Pigment Epithelial (RPE)” for “A-549 lung cancer”, “1:1 DMEM/Hams” for “Hams”, “(Invitrogen™, Carlsebad, Calif.; Corning®” for “1× with glutamine (Corning®”
as §4, with “solution.” for “solution. Absorbance measurements (595 nm) were quantified using a DTX 880 plate reader and IC50 values were generated for FLIPs.”

[6] = system: PC3 cells; assay: Cell cycle analysis and BrdU pulse labeling in PC3 cells, FIG. 9-11; type: cell-based
Protocol: (§5) Analysis of Cell Cycle Progression by FACS
(§6) Serum-Starved Synchronization
(§7) Cells were synchronized in G1 by serum starvation. Briefly, exponentially growing cells were plated overnight. Media (DMEM, 10% FBS, 1% Pen. Strep.) was then removed and replaced with media containing no FBS. Cells were starved for 72 hours then treated for 24 hours with inhibitor. Following treatment, cells were harvested and processed for endpoint experimental analysis.
(§8) Ethanol fixative was removed by centrifugation and the cells were washed with 1 mL ice-cold PBS/1% BSA. Cells were denatured by resuspending in 0.2 mg/mL pepsin in 2N HCl and incubated in 37° C. water bath for 15 minutes. Hydrolysis was then terminated by adding 1 M Invitrogen™ Novex® Tris-Glycine. Cells were then washed with PBS/1% BSA then the primary anti-BrdU antibody (1:100 dilution in TBFP; 0.5% Tween-20, 1% BSA, 1% FBS, PBS) was added and cells were incubated for 25 minutes in the dark, at room temperature. […] Cells were washed once more with PBS/1% BSA and re-suspended in DAPI for 30 minutes before being analyzed by flow cytometry.
The PLK1 PBD-inhibitors were analyzed further by cell cycle analysis in PC3 cells (FIG. 9). […] To quantify the percentage of cells actively proliferating (synthesizing their DNA) or arrested Bromodeoxyuridine (BrdU) pulse labeling was carried out and analyzed by flow cytometry.

[7] = system: HeLa cervical cancer cells; assay: Cell viability assay (MTT), HeLa; type: cell-based; conditions: read-out: HeLa
Protocol: HeLa cervical cancer cells were obtained from ATCC (Manassas, Va.). […] Cells were maintained in DMEM (Invitrogen™, Carlsebad, Calif.) supplemented with 10% FBS or Corning© Nu-Serum™ (BD™ Biosciences, Franklin Lakes, N.J.) and 1% penicillin/streptomycin (Invitrogen™) in a humidified incubator and 5% CO2 at 37° C.
as §4, with “solution.” for “solution. Absorbance measurements (595 nm) were quantified using a DTX 880 plate reader and IC50 values were generated for FLIPs.”

[8] = system: PTEN deficient prostate cancer (PC3) cells; assay: Cell viability assay (MTT), PC3; type: cell-based; conditions: read-out: PCC-3
Protocol: PC3 prostate cancer cells were maintained in DMEM (Invitrogen™, Carlsebad, Calif.) supplemented with 10% FBS or Corning® Nu-Serum™ (BD™ Biosciences, Franklin Lakes, N.J.) and 1% penicillin/streptomycin (Invitrogen™) in a humidified incubator and 5% C02 at 37° C.
as §4, with “solution.” for “solution. Absorbance measurements (595 nm) were quantified using a DTX 880 plate reader and IC50 values were generated for FLIPs.”

[9] = system: PC3 cells; assay: Cell cycle analysis after release (DAPI/BrdU FACS), FIG. 3; type: cell-based
Protocol: PLK specificity can be useful in therapeutic applications, as well as in research-oriented application.
as §5, §6, §7, §8

[10] = Cell cycle analysis and caspase apoptosis assay; type: cell-based
Description: Disclosed small molecule inhibitors can also encourage apoptosis.

[11] = Cytotoxicity, cell viability and apoptosis data, FIG. 12; type: cell-based; conditions: average from various assays
Description: For instance, FIG. 12 presents cytotoxicity, cell viability, and apoptosis data for cells treated with inhibitor SCCP ID No: 6037. […] The data of FIG. 13 relates to SCCP ID No: 5914 and the data of FIG. 14 relates to SCCP ID No: 5915.

[12] = target: T2, PLK3 PBD (335-646) (Homo sapiens, UniProt Q9H4B4); assay: Fluorescence polarization assay, PLK3 PBD; conditions: PLK3 PBD binding
T2 construct: PLK3 PBD (335-646); purchased BPS Biosciences Inc. (San Diego, Calif.)
T2 sequence (Q9H4B4 335-646): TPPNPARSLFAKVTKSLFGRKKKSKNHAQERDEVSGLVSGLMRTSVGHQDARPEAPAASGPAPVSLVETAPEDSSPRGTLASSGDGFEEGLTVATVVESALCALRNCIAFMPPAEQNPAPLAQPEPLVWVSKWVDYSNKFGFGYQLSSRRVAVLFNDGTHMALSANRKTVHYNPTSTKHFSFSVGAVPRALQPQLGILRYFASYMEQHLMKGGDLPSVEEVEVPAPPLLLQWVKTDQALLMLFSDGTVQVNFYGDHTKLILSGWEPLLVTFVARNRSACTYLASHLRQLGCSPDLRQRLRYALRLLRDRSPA
Protocol: as §1, §2

[13] = PLK1 PBD binding, fluorescence polarization, read-out: PLK1 IC50
[14] = Table 1, fluorescence polarization, read-out: PLK1 PBD IC50

CCCCCCCCc1ccc(C(=O)Nc2ccccc2C(=O)O)cc1 [SCCP ID No. 5912]
PLK1 versus PLK3 specificity (in words) [1]: relatively equipotent for PLK1 and PLK3 PBD binding
IC50 ([2]; Homo sapiens, A549, 72 hours): 2.8 ± 0.1 µM
IC50 ([3]; Homo sapiens, HCT-116, 72 hours): 8 ± 1.7 µM
sensitivity of cells containing wild type PLK1 (in words) [4]: sensitive
sensitivity of cells containing mutant (C67V) PLK1 (in words) [5]: sensitive
cell cycle phenotype (in words) ([6]; 15 μM): S phase delay

CCCCCCCCCCCCc1ccc(C(=O)Nc2ccccc2C(=O)O)cc1 [SCCP ID No. 6037]
PLK1 versus PLK3 specificity (in words) [1]: selectivity for PLK3
IC50 [1, 13]: 5.97 ± 0.38 µM
IC50 ([7]; Homo sapiens, HeLa, 72 h): 14 ± 3.5 µM
IC50 ([8]; Homo sapiens, PC-3, 72 h): 9.4 ± 0.8 µM
G2/M by DAPI ([9]; 5 μM): 7%
BrdU+ ([9]; 5 μM, FIG. 3 2nd panel): 27%
G1 by DAPI ([9]; 5 μM, FIG. 3 2nd panel): 77%
S by DAPI ([9]; 5 μM, FIG. 3 2nd panel): 15%
G2/M by DAPI ([9]; 20 μM, FIG. 3 3rd panel): 28%
cells replicating their DNA (BrdU labeling) ([6]; 5 μM): 75.7%
BrdU+ ([6]; 15 μM): 1.9%
cell cycle phenotype (in words) ([6]; 15 μM): G1 arrest
cell cycle phenotype (in words) ([6]; both the lower (5 μM) and higher (15 μM) dose, FIG. 11): G1 accumulation
levels of apoptosis (in words) [10]: high levels of apoptosis
cell viability [11]: 15.6 ± 3.4 µM
cytotoxicity [11]: 14.8 ± 3.6 µM

CCCCCCCCc1ccc(CNc2ccc(C)cc2C(=O)O)cc1 [SCCP ID No. 5961]
IC50 [1, 13]: > 600 µM
binding to the PLK1 PBD (in words) ([1]; fluorescence polarization): undetectable
IC50 [12]: 157 µM

CCCCCCCCc1ccc(CNc2ccccc2C(=O)O)cc1 [SCCP ID No. 5953]
IC50 [1, 13]: 9.57 ± 2.03 µM

CCCCCCc1ccc(C(=O)Nc2cccc(C(=O)O)c2)cc1 [SCCP ID No. 5903]
IC50 [1, 13]: 130 ± 3.6 µM
Selectivity Fold Index ([1]; fold selectivity for PLK1 versus PLK3 PBD): 1.6
IC50 [12]: 43.6 ± 1.69 µM

CCCCCc1ccc(C(=O)Nc2ccccc2C(=O)O)cc1 [SCCP ID No. 5905]
IC50 [1, 13]: 224 ± 4.88 µM

CCCCCCCCc1ccc(C(=O)NCCC(=O)O)cc1 [SCCP ID No. 5975]
IC50 [1, 14]: > 200 µM

CCCCCCCCc1ccc(C(=O)Nc2cccc(C(F)(F)F)c2C(=O)O)cc1 [SCCP ID No. 5945]
IC50 ([7]; MTT, 72 hours): 20.1 ± 3.1 µM
IC50 ([8]; MTT, 72 hours): 27.9 ± 2.6 µM
IC50 ([2]; 72 hours): 13.3 ± 0.8 µM
IC50 ([3]; 72 hours): 24.9 ± 2 µM

CCCCCCCCc1ccc(C(=O)NCc2ccccc2C(=O)O)cc1 [SCCP ID No. 5913]
IC50 [1, 14]: 105 µM

CCCCCCCCc1ccc(C(=O)Nc2ccccc2C(=O)OCC)cc1 [SCCP ID No. 5914]
IC50 [1, 13]: > 600 µM
IC50 ([7]; Homo sapiens, HeLa, 72 h): > 100 µM
IC50 ([8]; Homo sapiens, PC-3, 72 h): > 100 µM
levels of apoptosis (in words) [10]: virtually none

CCCCCCc1ccc(C(=O)Nc2cccc(S(N)(=O)=O)c2)cc1 [SCCP ID No. 5908]
IC50 [1, 13]: > 600 µM
binding to the PLK1 PBD (in words) ([1]; fluorescence polarization): No binding was observed

CCCCCCCCc1ccc(C(=O)Nc2cccc([N+](=O)[O-])c2C(=O)O)cc1 [SCCP ID No. 5939]
IC50 [1, 13]: 6.05 ± 1.9 µM
